Here are results for 6 compounds from ChEMBL document CHEMBL1697781, “Assessment of the health effects of chemicals in humans: II. Construction of an adverse effects database for QSAR modeling” (Curr Drug Discov Technol, 2004).

What all share (settings): human
Series [1] has as its system Hepatotoxicity. Description: FDA HLAED, alkaline phosphatase increase.
Series [2] relates to Hepatotoxicity. Description: FDA HLAED, liver enzyme composite activity.
The subject of series [3] is Hepatotoxicity. Description: FDA HLAED, serum glutamic oxaloacetic transaminase (SGOT) increase.
For series [4], the system named is Hepatotoxicity. The series can be described thus: FDA HLAED, gamma-glutamyl transferase (GGT) increase.
Series [5] deals with Hepatotoxicity. Description: FDA HLAED, lactate dehydrogenase (LDH) increase.
Series [6] relates to Hepatotoxicity. Description: FDA HLAED, serum glutamic pyruvic transaminase (SGPT) increase.
For GGT Increase - Index Value in this document: reference of the scale not given here.
For LDH Increase - Index Value in this document: reference of the scale not given here.

`Nc1ccn(C[C@@H](CO)OCP(=O)(O)O)c(=O)n1.O.O` [CIDOFOVIR]: in the series on Hepatotoxicity [1], the “Alkaline Phosphatase Increase - Activity Score” value is recorded as “Active”, the “Alkaline Phosphatase Increase - Index Value” was 92.2 and the “Alkaline Phosphatase Increase - Number of Reports” value was below 4. For the same compound, in the series with Hepatotoxicity [2], the “Composite Activity - Active” value came to 1, the “Composite Activity - Marginal” value is recorded as 0 and the “Composite Activity - Score” value is on record as “Inactive”. Moreover, in the series on Hepatotoxicity [3], the “SGOT Increase - Activity Score” value was “Inactive”, the “SGOT Increase - Index Value” is on record as 46.1 and the “SGOT Increase - Number of Reports” value is below 4. Also, in the series with Hepatotoxicity [4], the “GGT Increase - Activity Score” value is “Inactive”, the “GGT Increase - Index Value” is on record as 0 and the “GGT Increase - Number of Reports” value is recorded as below 4. Besides, in the series on Hepatotoxicity [5], the “LDH Increase - Activity Score” value is “Inactive”, the “LDH Increase - Index Value” stood at 46.1 and the “LDH Increase - Number of Reports” value is reported as below 4. In addition, in the series on Hepatotoxicity [6], the “SGPT Increase - Activity Score” value is “Inactive”, the “SGPT Increase - Index Value” is 0 and the “SGPT Increase - Number of Reports” value was below 4.
As to `CCCCC(=O)N(Cc1ccc(-c2ccccc2-c2nnn[nH]2)cc1)[C@H](C(=O)O)C(C)C`, in the series on Hepatotoxicity [1], the “Alkaline Phosphatase Increase - Activity Score” value is recorded as “Inactive”, the “Alkaline Phosphatase Increase - Index Value” came to 0 and the “Alkaline Phosphatase Increase - Number of Reports” value is below 4. In addition, in the series with Hepatotoxicity [2], the “Composite Activity - Active” value stood at 0, the “Composite Activity - Marginal” value stood at 0 and the “Composite Activity - Score” value is reported as “Inactive”. Also, in the series with Hepatotoxicity [3], the “SGOT Increase - Activity Score” value is reported as “Inactive”, the “SGOT Increase - Index Value” is listed as 5 and the “SGOT Increase - Number of Reports” value is recorded as below 4. In the series with Hepatotoxicity [4], the “GGT Increase - Activity Score” value is “Inactive”, the “GGT Increase - Index Value” came out at 2.5 and the “GGT Increase - Number of Reports” value is reported as below 4. In the series with Hepatotoxicity [5], the “LDH Increase - Activity Score” value was “Inactive”, the “LDH Increase - Index Value” came out at 0 and the “LDH Increase - Number of Reports” value is recorded as below 4. For the same compound, in the series with Hepatotoxicity [6], the “SGPT Increase - Activity Score” value is “Inactive”, the “SGPT Increase - Index Value” is 7.6 and the “SGPT Increase - Number of Reports” value is below 4.
As for `COc1cc(C(=O)NS(=O)(=O)c2ccccc2C)ccc1Cc1cn(C)c2ccc(NC(=O)OC3CCCC3)cc12` [ZAFIRLUKAST], in the series on Hepatotoxicity [1], the “Alkaline Phosphatase Increase - Activity Score” value was “Inactive”, the “Alkaline Phosphatase Increase - Index Value” came to 2.6 and the “Alkaline Phosphatase Increase - Number of Reports” value was “>= 4”. In the series on Hepatotoxicity [2], the “Composite Activity - Active” value was determined as 2, the “Composite Activity - Marginal” value stood at 1 and the “Composite Activity - Score” value is on record as “Active”. Besides, in the series on Hepatotoxicity [3], the “SGOT Increase - Activity Score” value was “Active”, the “SGOT Increase - Index Value” worked out at 10.1 and the “SGOT Increase - Number of Reports” value was “>= 4”. Also, in the series on Hepatotoxicity [4], the “GGT Increase - Activity Score” value is recorded as “Inactive”, the “GGT Increase - Index Value” stood at 0.5 and the “GGT Increase - Number of Reports” value was below 4. In the series on Hepatotoxicity [5], the “LDH Increase - Activity Score” value is on record as “Marginally Active”, the “LDH Increase - Index Value” is reported as 3.7 and the “LDH Increase - Number of Reports” value is “>= 4”. In the series with Hepatotoxicity [6], the “SGPT Increase - Activity Score” value is given as “Active”, the “SGPT Increase - Index Value” worked out at 9.5 and the “SGPT Increase - Number of Reports” value is recorded as “>= 4”.
As to `CC(=O)Nc1ccc(O)cc1` [ACETAMINOPHEN], in the series with Hepatotoxicity [1], the “Alkaline Phosphatase Increase - Activity Score” value was “Marginally Active”, the “Alkaline Phosphatase Increase - Index Value” is recorded as “No Shipping Units” and the “Alkaline Phosphatase Increase - Number of Reports” value is reported as “>= 4”. In the series on Hepatotoxicity [2], the “Composite Activity - Active” value is 2, the “Composite Activity - Marginal” value was 3 and the “Composite Activity - Score” value is on record as “Active”. In the series on Hepatotoxicity [3], the “SGOT Increase - Activity Score” value is reported as “Active”, the “SGOT Increase - Index Value” is reported as “No Shipping Units” and the “SGOT Increase - Number of Reports” value was “>= 4”. Besides, in the series with Hepatotoxicity [4], the “GGT Increase - Activity Score” value is reported as “Marginally Active”, the “GGT Increase - Index Value” is on record as “No Shipping Units” and the “GGT Increase - Number of Reports” value is “>= 4”. Also, in the series on Hepatotoxicity [5], the “LDH Increase - Activity Score” value is given as “Marginally Active”, the “LDH Increase - Index Value” was “No Shipping Units” and the “LDH Increase - Number of Reports” value is listed as “>= 4”. Also, in the series with Hepatotoxicity [6], the “SGPT Increase - Activity Score” value was “Active”, the “SGPT Increase - Index Value” was “No Shipping Units” and the “SGPT Increase - Number of Reports” value is “>= 4”.
For `COc1cc2c(cc1OC)[C@@H](Cc1cc(OC)c(OC)c(OC)c1)[N+](C)(CCCOC(=O)CC/C=C/CCC(=O)OCCC[N+]1(C)CCc3cc(OC)c(OC)cc3[C@H]1Cc1cc(OC)c(OC)c(OC)c1)CC2.[Cl-].[Cl-]` (stereo partly drawn) [MIVACURIUM CHLORIDE], in the series on Hepatotoxicity [1], the “Alkaline Phosphatase Increase - Activity Score” value is on record as “Inactive”, the “Alkaline Phosphatase Increase - Index Value” was found to be 0 and the “Alkaline Phosphatase Increase - Number of Reports” value is recorded as below 4. In the series with Hepatotoxicity [2], the “Composite Activity - Active” value is recorded as 0, the “Composite Activity - Marginal” value worked out at 0 and the “Composite Activity - Score” value is “Inactive”. Also, in the series with Hepatotoxicity [3], the “SGOT Increase - Activity Score” value is listed as “Inactive”, the “SGOT Increase - Index Value” turned out to be 0 and the “SGOT Increase - Number of Reports” value is below 4. In addition, in the series with Hepatotoxicity [4], the “GGT Increase - Activity Score” value is “Inactive”, the “GGT Increase - Index Value” came out at 0 and the “GGT Increase - Number of Reports” value is listed as below 4. Besides, in the series on Hepatotoxicity [5], the “LDH Increase - Activity Score” value is given as “Inactive”, the “LDH Increase - Index Value” is listed as 0 and the “LDH Increase - Number of Reports” value is on record as below 4. Moreover, in the series with Hepatotoxicity [6], the “SGPT Increase - Activity Score” value was “Inactive”, the “SGPT Increase - Index Value” amounted to 0 and the “SGPT Increase - Number of Reports” value is below 4.
As for `CCOC(=O)c1ncn2c1CN(C)C(=O)c1cc(F)ccc1-2` [FLUMAZENIL], in the series on Hepatotoxicity [1], the “Alkaline Phosphatase Increase - Activity Score” value was “Inactive”, the “Alkaline Phosphatase Increase - Index Value” is reported as 0 and the “Alkaline Phosphatase Increase - Number of Reports” value is below 4. In addition, in the series on Hepatotoxicity [2], the “Composite Activity - Active” value is listed as 0, the “Composite Activity - Marginal” value is 0 and the “Composite Activity - Score” value is reported as “Inactive”. Besides, in the series with Hepatotoxicity [3], the “SGOT Increase - Activity Score” value was “Inactive”, the “SGOT Increase - Index Value” is reported as 2.5 and the “SGOT Increase - Number of Reports” value is below 4. In the series with Hepatotoxicity [4], the “GGT Increase - Activity Score” value was “Inactive”, the “GGT Increase - Index Value” worked out at 0 and the “GGT Increase - Number of Reports” value is below 4. Besides, in the series on Hepatotoxicity [5], the “LDH Increase - Activity Score” value is recorded as “Inactive”, the “LDH Increase - Index Value” was found to be 0 and the “LDH Increase - Number of Reports” value is below 4. In the series with Hepatotoxicity [6], the “SGPT Increase - Activity Score” value is reported as “Inactive”, the “SGPT Increase - Index Value” is on record as 2.5 and the “SGPT Increase - Number of Reports” value is below 4.
